According to patent publication US20230085307A1, “PYRIDAZINONE COMPOUND AND HERBICIDE” (NISSAN CHEMICAL CORPORATION, priority 2019, published 2023):

Key:
directly sowed rice = experiment: Test Example 3: effect on crop by foliage application, Wagner pot (Table 18, symbol b); assay type: in vivo; details: 320 g/ha
How it was run: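 Plants were sown in alluvial soil held under 0.1–0.5 cm standing water and grown 14 days in a greenhouse at 25–30 °C. An emulsifiable formulation, water-diluted to the set dose, was then sprayed onto the foliage, and effects were scored three weeks later using previously defined criteria.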

beet [1] = experiment: Test Example 4: effect on crop by soil treatment (Table 19, symbol f); assay type: in vivo; details: 320 g/ha
How it was run: (§1)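 Scoring uses the grading scale of an earlier test, three weeks post-application. Treatment consists of spraying a diluted emulsion formulation across the surface of sterilized diluvial soil in which seeds are buried near 1.5 cm deep; boxes are kept in a greenhouse between 25° C. and 30° C.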

corn [2] = experiment: Test Example 5: effect on crop by foliage application, plastic box (Table 20, symbol c); assay type: in vivo; details: 320 g/ha, evaluated three weeks after application
How it was run: (§2)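 Post-emergence foliar test in sterilized diluvial soil. Compound applied as water-diluted emulsion at a predetermined rate to 14-day-old plants; evaluation at three weeks.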

wheat [3] = experiment: Test Example 4: effect on crop by soil treatment (Table 19, symbol e); assay type: in vivo; details: 320 g/ha
How it was run: as §1

soybean [4] = experiment: Test Example 5: effect on crop by foliage application, plastic box (Table 20, symbol d); assay type: in vivo; details: 320 g/ha, evaluated three weeks after application
How it was run: as §2

wheat [5] = experiment: Test Example 5: effect on crop by foliage application, plastic box (Table 20, symbol e); assay type: in vivo; details: 320 g/ha, evaluated three weeks after application
How it was run: as §2

beet [6] = experiment: Test Example 5: effect on crop by foliage application, plastic box (Table 20, symbol f); assay type: in vivo; details: 320 g/ha, evaluated three weeks after application
How it was run: as §2

soybean [7] = experiment: Test Example 4: effect on crop by soil treatment (Table 19, symbol d); assay type: in vivo; details: 320 g/ha
How it was run: as §1

transplanted rice = experiment: Test Example 1: effect on crop, application before weed generation under submerged conditions (Table 16, symbol a); assay type: in vivo; details: 320 g/ha applied herbicide
How it was run: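 Submerged Wagner pots (alluvial soil, 4 cm water) sown with weed seeds and planted with 2.5-leaf rice seedlings; emulsifiable concentrate diluted in water applied to water surface on sowing day. Held in greenhouse at 25-30 °C; injury scored 0-5 by herbicidal rate after three weeks.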

rapeseed [8] = experiment: Test Example 4: effect on crop by soil treatment (Table 19, symbol g); assay type: in vivo; details: 320 g/ha
How it was run: as §1

false cleavers [9] = experiment: Test Example 5: herbicidal effect by foliage application, plastic box (Table 20, symbol Q); assay type: in vivo, false cleavers (Galium spurium); details: foliage application, 320 g/ha, evaluated three weeks after application
How it was run: as §2

false cleavers [10] = experiment: Test Example 4: herbicidal effect by soil treatment (Table 19, symbol Q); assay type: in vivo, false cleavers (Galium spurium); details: 320 g/ha
How it was run: as §1

rapeseed [11] = experiment: Test Example 5: effect on crop by foliage application, plastic box (Table 20, symbol g); assay type: in vivo; details: 320 g/ha, evaluated three weeks after application
How it was run: as §2

corn [12] = experiment: Test Example 4: effect on crop by soil treatment (Table 19, symbol c); assay type: in vivo; details: 320 g/ha
How it was run: as §1

In the case of COc1cc(F)ccc1-c1sc2ccc(Cl)cc2c1-c1c(O)c(C)nn(C)c1=O [Compound No. 2-095, 4-(5-chloro-2-(4-fluoro-2-methoxyphenyl)benzo[b]thiophen-3-yl)-5-hydroxy-2,6-dimethylpyridazin-3(2H)-one], the “effect on crop b (directly sowed rice), rating 0-5” value (directly sowed rice) is reported as 1 (Herbicidal rate of 5% or more and less than 20%), the “effect rating on crop, f: beet” value (beet [1]) is reported as 4 (Herbicidal rate of 70% or more and less than 90%) and the “effect on crop, c: corn” value (corn [2]) is reported as 1 (Herbicidal rate of 5% or more and less than 20%). For the same compound, the “effect rating on crop, e: wheat” value (wheat [3]) was 0 (Herbicidal rate of 5% or less (almost no effect)), the “effect on crop, d: soybean” value (soybean [4]) was 4 (Herbicidal rate of 70% or more and less than 90%) and the “effect on crop, e: wheat” value (wheat [5]) was 1 (Herbicidal rate of 5% or more and less than 20%). The “effect on crop, f: beet” value (beet [6]) was 5 (Herbicidal rate of 90% or more (almost completely withered)), the “effect rating on crop, d: soybean” value (soybean [7]) was 0 (Herbicidal rate of 5% or less (almost no effect)) and the “Effect on crop a: transplanted rice (grade 0-5)” value (transplanted rice) was 0 (Herbicidal rate of 5% or less (almost no effect)). For the same compound, the “effect rating on crop, g: rapeseed” value (rapeseed [8]) was 1 (Herbicidal rate of 5% or more and less than 20%), the “herbicidal effect on Q: false cleavers” value (false cleavers [9]) was 5 (Herbicidal rate of 90% or more (almost completely withered)) and the “herbicidal effect rating, Q: false cleavers” value (false cleavers [10]) was 4 (Herbicidal rate of 70% or more and less than 90%). The “effect on crop, g: rapeseed” value (rapeseed [11]) was 5 (Herbicidal rate of 90% or more (almost completely withered)), the “effect rating on crop, c: corn” value (corn [12]) was 0 (Herbicidal rate of 5% or less (almost no effect)) and the melting point was 221 to 223 °C.
